Data published in PubChem BioAssay AID256 (DTP/NCI, 2004).
Several values for one entry are separate records, joined by “and”; a condition that tells them apart may be missing. Identical values can stand only once. Inconclusive results and toxic doses are left out. The calls were made as follows: active = survival T/C of 150% or more; inactive = T/C below 125% in these data.

System: CD2F1 mice, L1210 leukemia ip, survival T/C
Test: NCI In Vivo Anticancer Drug Screen. Data for tumor model L1210 Leukemia (intraperitoneal) in CD2F1 (CDF1) mice
Conditions: higher = longer survival
In short: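 Compound-dosed mice with transplantable tumor versus matched vehicle controls; endpoint ratio T/C reported.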

Measured: T/C

Nc1ncnc2c1ccn2C1OC(CO)C(O)C1O (configuration not stated)
inactive: endpoint: mean survival time, dose: 0.13 mg/kg/injection, schedule: Q01DX009 (ip), vehicle: saline 104 % of control and 106 % of control | endpoint: mean survival time, dose: 0.16 mg/kg/injection, schedule: Q01DX010 (ip), vehicle: saline 98 % of control and 108 % of control | endpoint: mean survival time, dose: 0.25 mg/kg/injection, schedule: Q01DX009 (ip), vehicle: saline 104 % of control and 110 % of control | endpoint: mean survival time, dose: 0.32 mg/kg/injection, schedule: Q01DX010 (ip), vehicle: saline 104 % of control and 111 % of control | endpoint: mean survival time, dose: 0.5 mg/kg/injection, schedule: Q01DX009 (ip), vehicle: saline 103 % of control and 104 % of control | endpoint: mean survival time, dose: 0.5 mg/kg/injection, schedule: Q03HX008 (ip), vehicle: carboxymethylcellulose (CMC) 102 % of control | endpoint: mean survival time, dose: 0.5 mg/kg/injection, schedule: Q06HX004 (ip), vehicle: carboxymethylcellulose (CMC) 101 % of control | endpoint: mean survival time, dose: 0.63 mg/kg/injection, schedule: Q01DX009 (ip), vehicle: saline 114 % of control | endpoint: mean survival time, dose: 0.63 mg/kg/injection, schedule: Q01DX010 (ip), vehicle: saline 98 % of control and 107 % of control | endpoint: mean survival time, dose: 1.0 mg/kg/injection, schedule: Q01DX001 (ip), vehicle: carboxymethylcellulose (CMC) 109 % of control | endpoint: mean survival time, dose: 1.0 mg/kg/injection, schedule: Q01DX009 (ip), vehicle: saline 99 % of control and 107 % of control | endpoint: mean survival time, dose: 1.0 mg/kg/injection, schedule: Q03HX008 (ip), vehicle: carboxymethylcellulose (CMC) 104 % of control | endpoint: mean survival time, dose: 1.0 mg/kg/injection, schedule: Q06HX004 (ip), vehicle: carboxymethylcellulose (CMC) 104 % of control | endpoint: mean survival time, dose: 1.0 mg/kg/injection, schedule: Q#A X002 (ip), vehicle: carboxymethylcellulose (CMC) 108 % of control | endpoint: mean survival time, dose: 1.25 mg/kg/injection, schedule: Q01DX009 (ip), vehicle: saline 118 % of control | endpoint: mean survival time, dose: 1.25 mg/kg/injection, schedule: Q01DX010 (ip), vehicle: saline 118 % of control and 119 % of control | endpoint: mean survival time, dose: 2.0 mg/kg/injection, schedule: Q03HX008 (ip), vehicle: carboxymethylcellulose (CMC) 117 % of control | endpoint: mean survival time, dose: 2.0 mg/kg/injection, schedule: Q06HX004 (ip), vehicle: carboxymethylcellulose (CMC) 107 % of control | endpoint: mean survival time, dose: 2.0 mg/kg/injection, schedule: Q#A X002 (ip), vehicle: carboxymethylcellulose (CMC) 110 % of control | endpoint: mean survival time, dose: 2.5 mg/kg/injection, schedule: Q01DX009 (ip), vehicle: saline 116 % of control | endpoint: mean survival time, dose: 4.0 mg/kg/injection, schedule: Q01DX001 (ip), vehicle: carboxymethylcellulose (CMC) 120 % of control | endpoint: mean survival time, dose: 4.0 mg/kg/injection, schedule: Q03HX008 (ip), vehicle: carboxymethylcellulose (CMC) 108 % of control | endpoint: mean survival time, dose: 4.0 mg/kg/injection, schedule: Q06HX004 (ip), vehicle: carboxymethylcellulose (CMC) 114 % of control | endpoint: mean survival time, dose: 8.0 mg/kg/injection, schedule: Q01DX001 (ip), vehicle: carboxymethylcellulose (CMC) 124 % of control | endpoint: mean survival time, dose: 8.0 mg/kg/injection, schedule: Q03HX008 (ip), vehicle: carboxymethylcellulose (CMC) 118 % of control | endpoint: mean survival time, dose: 8.0 mg/kg/injection, schedule: Q06HX004 (ip), vehicle: carboxymethylcellulose (CMC) 116 % of control | endpoint: mean survival time, dose: 8.0 mg/kg/injection, schedule: Q#A X002 (ip), vehicle: carboxymethylcellulose (CMC) 122 % of control | endpoint: median survival time, dose: 0.06 mg/kg/injection, schedule: Q03HX024 (ip), vehicle: other 107 % of control | endpoint: median survival time, dose: 0.13 mg/kg/injection, schedule: Q03HX008 (ip), vehicle: other 102 % of control | endpoint: median survival time, dose: 0.13 mg/kg/injection, schedule: Q03HX016 (ip), vehicle: other 96 % of control | endpoint: median survival time, dose: 0.13 mg/kg/injection, schedule: Q03HX024 (ip), vehicle: other 100 % of control | endpoint: median survival time, dose: 0.25 mg/kg/injection, schedule: Q01DX009 (ip), vehicle: other 94 % of control | endpoint: median survival time, dose: 0.25 mg/kg/injection, schedule: Q01DX009 (sc), vehicle: other 93 % of control | endpoint: median survival time, dose: 0.25 mg/kg/injection, schedule: Q03HX008 (ip), vehicle: other 96 % of control | endpoint: median survival time, dose: 0.25 mg/kg/injection, schedule: Q03HX016 (ip), vehicle: other 94 % of control | endpoint: median survival time, dose: 0.25 mg/kg/injection, schedule: Q03HX024 (ip), vehicle: other 101 % of control | endpoint: median survival time, dose: 0.5 mg/kg/injection, schedule: Q01DX009 (ip), vehicle: other 88 % of control | endpoint: median survival time, dose: 0.5 mg/kg/injection, schedule: Q01DX009 (oral), vehicle: other 99 % of control | endpoint: median survival time, dose: 0.5 mg/kg/injection, schedule: Q01DX009 (sc), vehicle: other 98 % of control | endpoint: median survival time, dose: 0.5 mg/kg/injection, schedule: Q03HX008 (ip), vehicle: other 100 % of control | endpoint: median survival time, dose: 0.5 mg/kg/injection, schedule: Q03HX016 (ip), vehicle: other 101 % of control | endpoint: median survival time, dose: 0.5 mg/kg/injection, schedule: Q03HX024 (ip), vehicle: other 96 % of control | endpoint: median survival time, dose: 0.5 mg/kg/injection, schedule: Q04DX003 (ip), vehicle: other 98 % of control | endpoint: median survival time, dose: 1.0 mg/kg/injection, schedule: Q01DX001 (ip), vehicle: other 102 % of control | endpoint: median survival time, dose: 1.0 mg/kg/injection, schedule: Q01DX001 (sc), vehicle: other 104 % of control | endpoint: median survival time, dose: 1.0 mg/kg/injection, schedule: Q01DX009 (ip), vehicle: other 92 % of control | endpoint: median survival time, dose: 1.0 mg/kg/injection, schedule: Q01DX009 (oral), vehicle: other 99 % of control | endpoint: median survival time, dose: 1.0 mg/kg/injection, schedule: Q01DX009 (sc), vehicle: other 98 % of control | endpoint: median survival time, dose: 1.0 mg/kg/injection, schedule: Q03HX008 (ip), vehicle: other 99 % of control | endpoint: median survival time, dose: 1.0 mg/kg/injection, schedule: Q03HX016 (ip), vehicle: other 93 % of control | endpoint: median survival time, dose: 1.0 mg/kg/injection, schedule: Q04DX003 (ip), vehicle: other 99 % of control | endpoint: median survival time, dose: 1.0 mg/kg/injection, schedule: Q08DX002 (ip), vehicle: other 108 % of control | endpoint: median survival time, dose: 2.0 mg/kg/injection, schedule: Q01DX001 (ip), vehicle: other 111 % of control | endpoint: median survival time, dose: 2.0 mg/kg/injection, schedule: Q01DX001 (oral), vehicle: other 99 % of control | endpoint: median survival time, dose: 2.0 mg/kg/injection, schedule: Q01DX001 (sc), vehicle: other 103 % of control | endpoint: median survival time, dose: 2.0 mg/kg/injection, schedule: Q01DX009 (oral), vehicle: other 100 % of control | endpoint: median survival time, dose: 2.0 mg/kg/injection, schedule: Q01DX009 (sc), vehicle: other 91 % of control | endpoint: median survival time, dose: 2.0 mg/kg/injection, schedule: Q04DX003 (ip), vehicle: other 111 % of control | endpoint: median survival time, dose: 2.0 mg/kg/injection, schedule: Q08DX002 (ip), vehicle: other 104 % of control | endpoint: median survival time, dose: 4.0 mg/kg/injection, schedule: Q01DX001 (ip), vehicle: other 113 % of control | endpoint: median survival time, dose: 4.0 mg/kg/injection, schedule: Q01DX001 (oral), vehicle: other 96 % of control | endpoint: median survival time, dose: 4.0 mg/kg/injection, schedule: Q01DX001 (sc), vehicle: other 99 % of control | endpoint: median survival time, dose: 4.0 mg/kg/injection, schedule: Q01DX009 (oral), vehicle: other 101 % of control | endpoint: median survival time, dose: 4.0 mg/kg/injection, schedule: Q01DX009 (sc), vehicle: other 93 % of control | endpoint: median survival time, dose: 4.0 mg/kg/injection, schedule: Q04DX003 (ip), vehicle: other 106 % of control | endpoint: median survival time, dose: 4.0 mg/kg/injection, schedule: Q08DX002 (ip), vehicle: other 114 % of control | endpoint: median survival time, dose: 8.0 mg/kg/injection, schedule: Q01DX001 (ip), vehicle: other 110 % of control | endpoint: median survival time, dose: 8.0 mg/kg/injection, schedule: Q01DX001 (oral), vehicle: other 101 % of control | endpoint: median survival time, dose: 8.0 mg/kg/injection, schedule: Q01DX001 (sc), vehicle: other 100 % of control | endpoint: median survival time, dose: 8.0 mg/kg/injection, schedule: Q01DX009 (oral), vehicle: other 103 % of control | endpoint: median survival time, dose: 8.0 mg/kg/injection, schedule: Q04DX003 (ip), vehicle: other 90 % of control | endpoint: median survival time, dose: 8.0 mg/kg/injection, schedule: Q08DX002 (ip), vehicle: other 108 % of control | endpoint: median survival time, dose: 16.0 mg/kg/injection, schedule: Q01DX001 (oral), vehicle: other 100 % of control | endpoint: median survival time, dose: 32.0 mg/kg/injection, schedule: Q01DX001 (oral), vehicle: other 86 % of control

S=C(S)NC1CCCCC1
inactive: endpoint: mean survival time, dose: 6.0 mg/kg/injection, schedule: Q04DX003 (ip), vehicle: saline with Tween-80 98 % of control | endpoint: mean survival time, dose: 12.0 mg/kg/injection, schedule: Q04DX003 (ip), vehicle: saline with Tween-80 102 % of control | endpoint: mean survival time, dose: 24.0 mg/kg/injection, schedule: Q04DX003 (ip), vehicle: saline with Tween-80 94 % of control
